In patent US20260297542A1, “HERBICIDE RESISTANT PLANTS” (SYNGENTA CROP PROTECTION AG, priority 2023, published 2026):
Positions count from the first letter of the chain named.

Assays:
Assay in all cases: E. coli hemG growth inhibition by herbicide, AtPPO1 variant
Format in all cases: cell-based
Conditions in all cases: read-out: percentage growth inhibition
AtPPO1 D448L = molecular target: T1, AtPPO1 D448L (Arabidopsis thaliana, UniProt P55826, D448L)
T1 construct: expressed in transfected cells; host or cells: E. coli BL21(DE3) hemG, pET24a plasmid
T1 sequence (P55826 35-537 D448L): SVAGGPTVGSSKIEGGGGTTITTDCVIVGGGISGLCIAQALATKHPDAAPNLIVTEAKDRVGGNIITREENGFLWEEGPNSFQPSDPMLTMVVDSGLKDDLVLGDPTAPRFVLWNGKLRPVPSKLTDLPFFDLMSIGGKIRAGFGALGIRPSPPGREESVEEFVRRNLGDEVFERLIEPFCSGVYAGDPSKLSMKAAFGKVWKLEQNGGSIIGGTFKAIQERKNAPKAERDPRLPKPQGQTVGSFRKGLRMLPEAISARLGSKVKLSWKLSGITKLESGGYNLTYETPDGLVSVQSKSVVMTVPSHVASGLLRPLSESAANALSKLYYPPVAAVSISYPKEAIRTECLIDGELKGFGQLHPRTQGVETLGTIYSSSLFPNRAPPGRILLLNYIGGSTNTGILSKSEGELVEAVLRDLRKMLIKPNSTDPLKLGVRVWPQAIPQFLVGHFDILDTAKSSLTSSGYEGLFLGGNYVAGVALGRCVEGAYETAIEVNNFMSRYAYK
Description: (§1) A pET24a plasmid containing a DNA sequence encoding a variant of PPO1 derived from Arabidopsis thaliana (AtPPO1), codon-optimised for expression in E. coli and under control of a T7 promoter, was synthesised by Twist Bioscience (SEQ ID NO:3). This plasmid was used as the basis of a Site Saturation Variant Library (SSVL) that substituted the codons at 352 amino acid positions for codons that encoded one of the other 19 amino acids, or removed the codon altogether, resulting in a translation product with a deletion at that position.
(§2) The SSVL was batch-transformed by electroporation into an E. coli BL21(DE3) hemG strain with the hemG gene replaced by CmR conferring resistance to chloramphenicol and spread onto LA supplemented with 50 μg/mL kanamycin, 25 μg/mL chloramphenicol and 20 μg/mL hematin. Each batch consisted of all the plasmids that contained variants at two sites.
(§3) Colonies from batch transformations were inoculated into 500 μL of Terrific broth supplemented with 50 μg/mL kanamycin, 25 μg/mL chloramphenicol and 20 μg/mL hematin in 96-deepwell blocks. Cultures were grown for 24 hours at 37° C. with shaking at 250 rpm.
(§4) Overnight cultures were centrifuged and the cell pellets resuspended with 500 μL of Terrific broth. The resuspended cultures were used at a ratio of 1:100 to inoculate a fresh 96-deepwell block containing 500 μL of Terrific broth supplemented with 0.1 mM IPTG, 50 μg/mL kanamycin, 25 μg/mL chloramphenicol and 6.25 ppm of herbicide […] or E or 0.78 ppm herbicide B or DMSO. Assay cultures were grown for 24 hours at 37° C. with shaking at 250 rpm with the OD600 being measured at 24 hours post inoculation. Strains that grew in both DMSO and herbicide were determined to be herbicide tolerant with the percentage of growth inhibition being calculated as below: […]

AtPPO1 V88I = molecular target: T2, AtPPO1 V88I (Arabidopsis thaliana, UniProt P55826, V88I)
T2 construct: expressed in transfected cells; host or cells: E. coli BL21(DE3) hemG (hemG replaced by CmR), pET24a plasmid
T2 sequence (P55826 35-537 V88I): T1 sequence (P55826 35-537 D448L) with V54I, L414D
Description: as §1, §2, §3, §4

AtPPO1 K281E = molecular target: T3, AtPPO1 K281E (Arabidopsis thaliana, UniProt P55826, K281E)
T3 construct: expressed in transfected cells; host or cells: E. coli BL21(DE3) hemG (hemG replaced by CmR), pET24a plasmid
T3 sequence (P55826 35-537 K281E): T1 sequence (P55826 35-537 D448L) with K247E, L414D
Description: as §1, §2, §3, §4

AtPPO1 F214Y = molecular target: T4, AtPPO1 F214Y (Arabidopsis thaliana, UniProt P55826, F214Y)
T4 construct: expressed in transfected cells; host or cells: E. coli BL21(DE3) hemG (hemG replaced by CmR), pET24a plasmid
T4 sequence (P55826 35-537 F214Y): T1 sequence (P55826 35-537 D448L) with F180Y, L414D
Description: as §1, §2, §3, §4

| SMILES | inhibition at 0.78 ppm (AtPPO1 D448L) [%] | inhibition at 0.78 ppm (AtPPO1 V88I) [%] | inhibition at 0.78 ppm (AtPPO1 K281E) [%] | inhibition at 0.78 ppm (AtPPO1 F214Y) [%] | inhibition at 6.25 ppm (AtPPO1 D448L) [%] | inhibition at 6.25 ppm (AtPPO1 V88I) [%] | inhibition at 6.25 ppm (AtPPO1 K281E) [%] | inhibition at 6.25 ppm (AtPPO1 F214Y) [%] |
| --- | --- | --- | --- | --- | --- | --- | --- | --- |
| C#CCN1C(=O)C(F)(F)Oc2cc(F)c(-n3c(=O)n(C)c(=S)n(C)c3=O)cc21 [Herbicide B, trifludimoxazin] | 38 | 32 | 37 | 26 | – | – | – | – |
| CCOC(=O)[C@]1(C)CC(c2cc(-n3c(=O)n(C)c(=S)n(C)c3=O)c(F)cc2Cl)=NO1 [Herbicide D, ethyl (5S)-3-[2-chloro-5-(3,5-dimethyl-2,6-dioxo-4-thioxo-1,3,5-triazinan-1-yl)-4-fluoro-phenyl]-5-methyl-4H-isoxazole-5-carboxylate] | – | – | – | – | 38 | 43 | 33 | 34 |
| CC(C)N(C)S(=O)(=O)NC(=O)c1cc(-n2c(=O)cc(C(F)(F)F)n(C)c2=O)c(F)cc1Cl [Herbicide E, saflufenacil] | – | – | – | – | 54 | 66 | 61 | 63 |
